In PubChem BioAssay (NCI) one finds GI50 and TGI data, which are given here for 16 compounds.

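A five-concentration, 48-hour dose response in 96-well plates underlies each endpoint, interpolated linearly between surrounding concentrations. The concentration for 50% growth inhibition is given as GI50. The concentration for full growth arrest is given as TGI.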

Among the test systems are SN12C renal; MOLT-4 leukemia; UACC-257 melanoma; LOX IMVI melanoma; U251 CNS; A498 renal; NCI-H23 lung; K-562 leukemia; HS 578T breast; MDA-MB-231 breast.
Experiment in all cases: inhibition of tumour cell growth, NCI panel, 48 h

As for `CC1=Cc2cc3[n-]c(cc4nc(cc5[n-]c(cc1n2)cc5C)C(C)=C4CCC(=O)O)c(CCC(=O)O)c3C.[Pd+2]`, the GI50 with SN12C renal was 9.17 µM; with MOLT-4 leukemia it was 10.1 µM; with UACC-257 melanoma it was 10.8 µM; in the experiment on LOX IMVI melanoma, 15.7 µM; in the experiment with U251 CNS, 2.56 µM; in the experiment with A498 renal it was 12.6 µM. Also, the GI50 with NCI-H23 lung is 9.55 µM; in the experiment on K-562 leukemia, 11 µM. Also, the TGI in the experiment with SN12C renal was found to be 17.9 µM; in the experiment with MOLT-4 leukemia it was 27.5 µM; in the experiment on UACC-257 melanoma, 29.3 µM; in the experiment on LOX IMVI melanoma, 39.6 µM; with U251 CNS, 8.24 µM; in the experiment on A498 renal, 29.8 µM. The TGI in the experiment with NCI-H23 lung is 25.2 µM; in the experiment with K-562 leukemia, above 37 µM.

Consider `COC(=O)c1ccc(N=NN(C)CO)cc1`, for which the TGI in the experiment with SN12C renal, in the experiment on MOLT-4 leukemia, in the experiment on UACC-257 melanoma, in the experiment on LOX IMVI melanoma, in the experiment with U251 CNS and in the experiment with A498 renal was above 100 µM throughout. The TGI in the experiment on NCI-H23 lung and in the experiment on K-562 leukemia was above 100 µM in each case.

`O=C1C(=O)N(c2ccc(Cl)c(Cl)c2)C(=O)C(=O)C1c1nc2ccccc2o1`: the TGI was above 100 µM with SN12C renal; above 100 µM in the experiment on MOLT-4 leukemia; above 100 µM in the experiment with UACC-257 melanoma; above 100 µM in the experiment with LOX IMVI melanoma; 85.6 µM with U251 CNS; above 100 µM in the experiment on NCI-H23 lung. The same compound came in with a TGI in the experiment with K-562 leukemia above 100 µM.

As for `COc1ccc2ccc([Se]c3ccc4ccc(OC)cc4c3)cc2c1`, the TGI with SN12C renal is above 100 µM; in the experiment with MOLT-4 leukemia, above 100 µM; with UACC-257 melanoma, above 100 µM; with LOX IMVI melanoma, above 100 µM; in the experiment on U251 CNS, 99.2 µM; in the experiment with A498 renal, above 100 µM. Also, the TGI in the experiment on NCI-H23 lung and with K-562 leukemia was above 100 µM in each case.

Turning to `CCOC(=O)CC1=CSC2=NCCN12`, the TGI in the experiment on SN12C renal, with UACC-257 melanoma, in the experiment on LOX IMVI melanoma, with U251 CNS, in the experiment on A498 renal and in the experiment with NCI-H23 lung was above 100 µM each time. This compound showed a TGI in the experiment on K-562 leukemia above 100 µM.

As to `O=C(O)C12C3CCCC1C2CC3` (centres undefined), the TGI with SN12C renal, in the experiment with MOLT-4 leukemia, with UACC-257 melanoma, in the experiment on LOX IMVI melanoma, in the experiment with U251 CNS and in the experiment on A498 renal was above 100 µM in each case. Also, the TGI in the experiment on NCI-H23 lung and with K-562 leukemia was above 100 µM in each case.

As for `CC1NOC(=O)C1N=Nc1ccccc1Cl` (centres undefined), the TGI with SN12C renal is above 100 µM; in the experiment with UACC-257 melanoma, 47 µM; in the experiment with LOX IMVI melanoma, above 100 µM; in the experiment on U251 CNS, above 100 µM; in the experiment on A498 renal it was 49.3 µM; in the experiment with NCI-H23 lung, above 100 µM. This compound also yielded a TGI with K-562 leukemia above 100 µM.

As for `COC(=O)Nc1nc2ccccc2c(=O)[nH]1`, the TGI with SN12C renal, in the experiment with MOLT-4 leukemia, in the experiment on HS 578T breast, in the experiment on UACC-257 melanoma, in the experiment with U251 CNS and with NCI-H23 lung was above 100 µM each time. The TGI in the experiment on K-562 leukemia and in the experiment with MDA-MB-231 breast was above 100 µM throughout.

As to `C=C1CC[C@@H]2C(C)(C)CCC[C@@]2(C)[C@@H]1Cc1cc(O)ccc1O`, the TGI is 15.6 µM in the experiment with SN12C renal; 9.07 µM in the experiment with MOLT-4 leukemia; 5.78 µM in the experiment with UACC-257 melanoma; 5.35 µM with LOX IMVI melanoma; 14.5 µM in the experiment on U251 CNS; 27.6 µM in the experiment on A498 renal. The TGI was 18.7 µM in the experiment on NCI-H23 lung and 16.7 µM in the experiment on K-562 leukemia.

Turning to `CS(=O)c1ccc(COP(N)(=O)N(CCCl)CCCl)cc1` (centres undefined), the TGI with SN12C renal, in the experiment on MOLT-4 leukemia, in the experiment on UACC-257 melanoma, in the experiment with LOX IMVI melanoma, in the experiment on U251 CNS and in the experiment on A498 renal was above 100 µM throughout. The TGI with NCI-H23 lung and in the experiment with K-562 leukemia was above 100 µM throughout.

Regarding `c1ccc(N=C2c3ccccc3C3=NCCCN32)cc1`, the TGI in the experiment with SN12C renal, in the experiment with MOLT-4 leukemia, in the experiment on UACC-257 melanoma, with LOX IMVI melanoma, with U251 CNS and in the experiment on A498 renal was above 100 µM in each case. The TGI with NCI-H23 lung and in the experiment with K-562 leukemia was above 100 µM each time.

Consider `O=[N+]([O-])C1C2C=CC(C2)[C@H]1c1ccccc1Cl` (some centres undefined), for which the TGI in the experiment with SN12C renal, with MOLT-4 leukemia, with UACC-257 melanoma, with LOX IMVI melanoma, with U251 CNS and with A498 renal was above 100 µM each time. Besides, the TGI in the experiment with NCI-H23 lung and in the experiment on K-562 leukemia was above 100 µM in each case.

As to `CCOC(=O)c1ccc(N2C(=O)/C(=C\OC)c3ccccc3C2=O)cc1`, the TGI in the experiment with SN12C renal is above 100 µM; in the experiment on MOLT-4 leukemia, 89.3 µM; in the experiment with UACC-257 melanoma, above 100 µM; in the experiment on U251 CNS it was above 100 µM; in the experiment on NCI-H23 lung, above 100 µM; in the experiment on K-562 leukemia, above 100 µM.

Regarding `CN(c1ccccc1)C(c1ccccc1)C(O)c1ccccc1` (centres undefined), the TGI with SN12C renal came to 31.3 µM; in the experiment with MOLT-4 leukemia it was 42.1 µM; in the experiment with UACC-257 melanoma, 35.6 µM; in the experiment on LOX IMVI melanoma it was 31.7 µM; with U251 CNS, 33.2 µM; in the experiment with A498 renal, 37.5 µM. In addition, the TGI in the experiment on NCI-H23 lung worked out at 40.4 µM; in the experiment on K-562 leukemia, 41.1 µM.

On to `CC(C(=O)Oc1ccc2ccccc2c1-c1c(O)ccc2ccccc12)c1ccccc1` (centres undefined), for which the TGI turned out to be 29.7 µM with SN12C renal; 44.8 µM in the experiment with MOLT-4 leukemia; 27.6 µM in the experiment with UACC-257 melanoma; 28.7 µM in the experiment with U251 CNS; 29.4 µM in the experiment on A498 renal; 30.3 µM with NCI-H23 lung. Moreover, the TGI with K-562 leukemia is 86.7 µM.

`ON=C1CCC(c2ccccc2)CC1` (centres undefined): the TGI in the experiment on SN12C renal, in the experiment with UACC-257 melanoma, with LOX IMVI melanoma, in the experiment on U251 CNS, in the experiment with A498 renal and in the experiment on NCI-H23 lung was above 100 µM throughout. The compound also yielded a TGI with K-562 leukemia above 100 µM.
